# Experimental data: patent US6713486B1, “Antiviral 2,4-pyrimidinedione derivatives and process for the preparation thereof” (Korea Research Institute of Chemical Technology, priority 1999, dated 2004)
# pEC50: −log10 of the molar value. Like-named read-outs stand apart in the source and are kept apart here.
# Experiments:
# MT-4 cells = settings: mock-infected MT-4 cells, MTT
# HIV-1 = settings: for ED50: Effective concentration for the inhibition of the proliferation of HIV-1 by 50%: HIV-1 infected MT-4 cells, MTT; for S.I. Selectivity index (CD50/ED50): CD50/ED50, MT-4 cells
# Description: First, MT-4 cells were suspended in a culture medium at a concentration of 1×10^4 cells/ml and infected with 500 TCID50 (50% cell culture infective dose)/well of HIV-1.
# Y181C HIV-1 mutant [1] = assay: Antiviral activity against mutant HIV-1 (Y181C) by the MTT method; assay type: cell-based; settings: read-out: EC50: Effective concentration for the inhibition of the proliferation of mutant HIV-1 by 50%; Y181C mutant HIV-1, MTT
# Method: Antiviral activities of the inventive compounds were determined against Y181C which is representative HIV-1 mutant having high resistance against anti-HIV-1 nonnucleosides, e.g., Nevirapine, by the MTT method. MKC-442 was employed as a comparative compound.
# Y181C HIV-1 mutant [2] = settings: read-out: EC50: Effective concentration for the inhibition of the proliferation of mutant HIV-1 by 50%; Y181C mutant HIV-1; Reference: J. Med. Chem., 42, 4500 (1999); cited from earlier work
Structure (SMILES),CD50: Cytotoxic concentration that causes death of MT-4 cells by 50% (MT-4 cells) [µg/mL],ED50: Effective concentration for the inhibition of the proliferation of HIV-1 by 50% (HIV-1) [ng/mL],pEC50 (Y181C HIV-1 mutant [1]),S.I. Selectivity index (CD50/ED50) (HIV-1),pEC50 (Y181C HIV-1 mutant [2])
"Cc1cc(C)cc(C(=O)c2c(C(C)C)c(=O)[nH]c(=O)n2Cc2ccncc2)c1 [Compound 1, 1-(4′-Picolyl)-5-isopropyl-6-(3′,5′-dimethylbenzoyl)-2,4-pyrimidinedione]",22.6,2.6,7.85 to 8.30,,
Cc1cc(C)cc(C(=O)c2c(C(C)C)c(=O)[nH]c(=O)n2Cc2cc(C(F)(F)F)cc(C(F)(F)F)c2)c1 [Compound 44],8.17,1800,,,
"Cc1cc(Cl)cc(C(=O)c2c(C(C)C)c(=O)[nH]c(=O)n2Cc2c(C)c[n+]([O-])cc2C)c1 [Compound 71, 1-(N-oxo-3′,5′-Dimethyl-4′-picolyl)-5-isopropyl-6-(3′,-chloro-5-methylbenzoyl)-2,4-pyrimidinedione]",25.44,8.2,,,
Cc1cc(C)cc(C(=O)c2c(C(C)C)c(=O)[nH]c(=O)n2Cc2cc(F)cc(F)c2)c1 [Compound 43],7.16,3.5,,,
"Cc1cc(Cl)cc(C(=O)c2c(C(C)C)c(=O)[nH]c(=O)n2Cc2ccncc2C(N)=O)c1 [Compound 80, 1-(3′-Carbamoyl-4′-picolyl)-5-isopropyl-6-(3′-chloro-5′-methylbenzoyl)-2,4-pyrimidinedione]",27.83,11.1,,,
"Cc1cc(C)cc(Nc2c(C(C)C)c(=O)[nH]c(=O)n2Cc2ccncc2)c1 [Compound 66, 1-(4′-Picolyl)-5-isopropyl-6-(3′, 5′-dimethylphenylamino)-2,4-pyrimidinedione]",>100,80,,,
"Cc1cc(C)cc(C(=O)c2c(C(C)C)c(=O)[nH]c(=O)n2Cc2ccncc2CO)c1 [Compound 75, 1-(3′-Hydroxymethyl-4′-picolyl)-5-isopropyl-6-(3′,5′-dimethylbenzoyl)-2,4-pyrimidinedione]",42.06,3.1,,,
"CC(=O)OCc1cncc(C)c1Cn1c(C(=O)c2cc(C)cc(C)c2)c(C(C)C)c(=O)[nH]c1=O [Compound 73, 1-(3′-Acetoxymethyl-5′-methyl-4′-picolyl)-5-isopropyl-6-(3′,5′-dimethylbenzoyl)-2,4-pyrimidinedione]",39.65,6.7,,,
"Cc1cc(C)cc(C(=O)c2c(C(C)C)c(=O)[nH]c(=O)n2Cc2c(C)c[n+]([O-])cc2C)c1 [Compound 70, 1-(N-oxo-3′, 5-Dimethyl-4′-picolyl)-5-Isopropyl-6-(3′, 5′-dimethylbenzoyl)-2,4-Pyrimidinedione]",25.84,5.5,,,
"Cc1cc(Cl)cc(C(=O)c2c(C(C)C)c(=O)[nH]c(=O)n2Cc2c(C)cncc2CO)c1 [Compound 77, 1-(3′-Hydroxymethyl-5′-methyl-4′-picolyl)-5-isopropyl-6-(3′-chloro-5′-methylbenzoyl)-2,4-pyrimidinedione]",23.51,11.5,,,
"CCOCn1c(Cc2ccccc2)c(C(C)C)c(=O)[nH]c1=O [MKC-442, 6-benzyl-1-ethoxymethyl-5-isopropyluracil, reference compound]",,5,,"5,544",4.87
Cc1cc(Cl)cc(Cn2c(C(=O)c3cc(C)cc(C)c3)c(C(C)C)c(=O)[nH]c2=O)c1 [Compound 40],7.97,34.8,,,
"Cc1cc(C)cc(C(=O)c2c(C(C)C)c(=O)[nH]c(=O)n2Cc2cc[n+]([O-])cc2)c1 [Compound 68, 1-(N-oxo-4′-Picolyl)-5-isopropyl-6-(3′,5′-dimethylbenzoyl)-2,4-pyrimidinedione]",56.9,14.5,,,
"Cc1cc(C)cc(C(=O)c2c(C(C)C)c(=O)[nH]c(=O)n2Cc2cccnc2)c1 [Compound 2, 1-(3′-Picolyl)-5-isopropyl-6-(3′, 5′-dimethylbenzoyl)-2,4-pyrimidinedione]",27.2,3.6,,,
"Cc1cc(C)cc(C(=O)c2c(C(C)C)c(=O)[nH]c(=O)n2Cc2cc[n+]([O-])cc2C)c1 [Compound 69, 1-(N-oxo-3′-Methyl-4′-picolyl)-5-isopropyl-6-(3′, 5′-dimethylbenzoyl)-2,4-pyrimidinedione]",48.25,12.5,,,
"Cc1cc(C)cc(C(=O)c2c(C(C)C)c(=O)[nH]c(=O)n2Cc2ccccn2)c1 [Compound 3, 1-(2′-Picolyl)-5-isopropyl-6-(3′, 5′-dimethylbenzoyl)-2,4-pyrimidinedione]",26.1,5.5,,,
"Cc1cc(C)cc(C(=O)c2c(C(C)C)c(=O)[nH]c(=O)n2Cc2c(C)cncc2CO)c1 [Compound 76, 1-(3′-Hydroxymethyl-5′-methyl-4′-picolyl)-5-isopropyl-6-(3′, 5′-dimethylbenzoyl)-2,4-pyrimidinedione]",38.39,8.4,,,
"CC(=O)OCc1cnccc1Cn1c(C(=O)c2cc(C)cc(C)c2)c(C(C)C)c(=O)[nH]c1=O [Compound 72, 1-(3′-Acetoxymethyl-4′-picolyl)-5-Isopropyl-6-(3′,5′-dimethylbenzoyl)-2,4-pyrimidinedione]",38.49,8.8,,,
"Cc1cc(C)cc(C(=O)c2c(C(C)C)c(=O)[nH]c(=O)n2Cc2ccncc2C(N)=O)c1 [Compound 79, 1-(3′-Carbamoyl-4′-picolyl)-5-isopropyl-6-(3′,5′-dimethylbenzoyl)-2,4-pyrimidinedione]",>100,9.1,,,
"COC(=O)c1cnccc1Cn1c(C(=O)c2cc(C)cc(C)c2)c(C(C)C)c(=O)[nH]c1=O [Compound 78, 1-(3′-Methoxycarbonyl-4′-picolyl)-5-isopropyl-6-(31,51-dimethylbenzoyl)-2,4-pyrimidinedione]",40.79,7.5,,,
"Cc1cc(C)cc(C(=O)c2c(C(C)C)c(=O)[nH]c(=O)n2Cc2ccc(N)cc2)c1 [Compound 81, 1-(4′-Aminobenzyl)-5-isopropyl-6-(3′,5′-dimethylbenzoyl)-2,4-pyrimidinedione]",9.63,15,,648,
"CCc1c(Nc2cc(C)cc(C)c2)n(Cc2ccncc2)c(=O)[nH]c1=O [Compound 67, 1-(4′-Picolyl)-5-ethyl-6-(3′, 5′-dimethylphenylamino)-2,4-pyrimidinedione]",54.5,420,,,
